Results on two compounds are retold here after patent publication US20220257552A1, “METHODS OF PRESCREENING AND TREATING BREAST CANCERS WITH SELECTIVE ANDROGEN RECEPTOR MODULATORS” (priority 2021, published 2022).

One assay concerns BR-0001 TNBC. The assay can be described thus: BR-0001 AR-positive TNBC xenograft in NSG mice. It counts as in vivo. On the procedure: Xenograft experiment. NSG mice obtained from JAX labs were housed with five animals per cage and were allowed free access to tap water and commercial rat chow (Harlan Teklad 22/5 rodent diet—8640). During the course of the study, the animals were maintained on a 12 hr light:dark cycle. Animals were anesthetized and BR-0001 TNBC fragments of 1 mm^3 (approximately) were implanted subcutaneously in NSG mice. […] Tumor volume was measured thrice weekly. Tumor volume was calculated using the formula length×width×width×0.5236. Once tumors reached greater than 1500-2000 mm^3, animals were sacrificed and tumors weighted and stored for various analysis. Two regions of the same BR-0001 tumor, an AR-positive TNBC xenograft, were immunohistochemically stained with AR antibody (AR N20 from SCBT) (FIGS. 26A and 26B) and compared to an AR-negative (FIG. 26C) TNBC as a negative control. […] The tumor xenograft efficacy experimental results are provided in 27A-27C, with FIGS. 27A and 27B being replicate experiments.
Tumors from replicate experiment 2 (FIG. 27B) were fixed in formalin and paraffin embedded. Slides were cut and stained with Ki-67 antibody. Ki-67 positive cells (total 200 cells were counted in each slide) in each slide were counted and represented as % stained cells, as shown in FIG. 28B.

For the next assay, the system named is MCF7 palboR cells. The assay can be described thus: Proliferation of palbociclib resistant MCF-7 cells. It counts as cell-based. Conditions: Formula IX 100 nM, Palb 125 nM. The text has this: Data were presented as mean values±s.e.m. […] Data represented the mean±s.e.m. of four replicate cell culture wells per condition. […] P values are indicated by gray asterisks, where ****P<0.0001 for all highlighted comparisons.
Tissue samples from an ER-positive, PR-negative, and HER2-negative (ER^+, PR^−, HER2^−) patient that progressed on (i.e., was resistant to) palbociclib were implanted into animal (NSG mice) models and grown as a patient-derived xenograft (PDX). […] This human tumor model also had amplification of the cyclin D1 (CCND1^Amp) gene which has been implicated as a driver of therapeutic resistance to CDKi. […] This is also observed in other models tested in vitro including a palbociclib resistant MCF-7 (MCF7 palbo^R) line (FIG. 44B).

For assay [1], the system named is MDA-MB-231 triple negative breast cancer cells. The assay can be described thus: SRB cell viability, MDA-MB-231 cells infected with AR adenovirus. In kind it is cell-based. On the procedure:
The SRB assay was used to determine cell number during cytotoxocity experiments. The following protocol was used: • 1. Cells were detached with 0.25% trypsin. • 2. Experimental cultures were cultured in 96-well microtiter plates (200 μL growth medium per well; 1,000-200,000 cells per well). • 3. Cultures were fixed with 50 μL 50% TCA (4° C.). (see cell fixation protocol for details). • 4. Fixed cells were stained with 50 μL 0.4% (wt/vol) SRB in 1% acetic acid for 10 minutes. • 5. SRB was removed and the cultures were quickly* rinsed 5 times with 1% acetic acid to remove unbound dye.** • 6. Cultures were air-dried overnight until there was no visible moisture. • 7. The cellular protein-bound SRB was dissolved with 200 μL unbuffered Tris base (10 mM, pH 10.5) for 30 minutes on a rocking platform shaker. • 8. Absorbance was read at 540 nm. * quickly performing rinsing process was to prevent desorption of protein-bound SRB ** completely removed residual wash solution by sharply flicking plates over sink.
The following protocol was used for fixing cells: • a. 50 μL of 50% TCA (4° C.) was gently layered on the top of growth medium in each well to make a final TCA concentration of 10%. • b. Cultures were incubated at 4° C. for 1 hour. • c. Cultures were washed 5 times with tap water to remove TCA, growth medium, low-molecular-weight metabolites, and serum protein. • d. Plates were air-dried until there was no visible moisture.
Cells were treated in charcoal stripped FBS (FIGS. 4A, 4C, 4E, 4G, 4I, 4K, 4M and 4O) or full serum (FIGS. 4B, 4D, 4F, 4H, 4J, 4L, 4N and 4P) for 3 days, fixed and stained with […] (SRB) to measure cell viability. Anti-proliferative IC50 values were calculated in breast cancer cells and compared to transactivation values, i.e., EC50 (agonists) and IC50 (antagonists) values, generated in HEK-293 cells.

A further assay relates to MCF-7-AR tumors. The assay can be described thus: Affymetrix microarray of MCF-7-AR tumors. In kind it is in vivo, mice. To be noted: Table 9. As for the experimental part: Microarray Analysis was performed on RNA from MDA-MB-231-AR and MCF-7-AR tumors in order to identify and compare changes in gene expression in ER-negative (MDA-MB-231-AR; triple negative) an ER-positive (MCF-7-AR; triple positive) breast cancer tumors treated with a compound of Formula VIII (30 mg/kg/day p.o. for 4 weeks). Affymetrix analysis of the xenografts was done on pooled samples of the xenografts. The analysis included ˜70,000 sequences with ˜30,000 genes and variations thereof represented, as well as microRNA's. RNA was isolated and expression of genes was evaluated using microarray (Affymetrix Human Gene ST 2.0 array). Expression of genes in compound of Formula VIII-treated samples was compared with the expression in vehicle-treated samples.

A further assay has as its target T1, ER-α (Rattus norvegicus, UniProt P06211).
T1 construct: expressed in transfected cells
Put plainly: ER-α transactivation in HEK-293 cells. In kind it is cell-based. As for the experimental part:
(§1) Rat GR, MR, PR, ER-α and ER-β were individually cloned into a pCR3.1 vector backbone. Sequencing was performed to verify the absence of any mutations. HEK-293 cells were plated at 90,000 cells per well of a 24 well plate in Dulbecco's Minimal Essential Media supplemented with 5% charcoal-stripped FBS. […] Luciferase assays were performed 48 h after transfection. Transcriptional activation values are represented as firefly luciferase normalized to renilla luciferase.

The target in a further assay is T2, ER-β (Rattus norvegicus, UniProt Q62986).
T2 construct: expressed in transfected cells
T2 sequence (Q62986 whole entry): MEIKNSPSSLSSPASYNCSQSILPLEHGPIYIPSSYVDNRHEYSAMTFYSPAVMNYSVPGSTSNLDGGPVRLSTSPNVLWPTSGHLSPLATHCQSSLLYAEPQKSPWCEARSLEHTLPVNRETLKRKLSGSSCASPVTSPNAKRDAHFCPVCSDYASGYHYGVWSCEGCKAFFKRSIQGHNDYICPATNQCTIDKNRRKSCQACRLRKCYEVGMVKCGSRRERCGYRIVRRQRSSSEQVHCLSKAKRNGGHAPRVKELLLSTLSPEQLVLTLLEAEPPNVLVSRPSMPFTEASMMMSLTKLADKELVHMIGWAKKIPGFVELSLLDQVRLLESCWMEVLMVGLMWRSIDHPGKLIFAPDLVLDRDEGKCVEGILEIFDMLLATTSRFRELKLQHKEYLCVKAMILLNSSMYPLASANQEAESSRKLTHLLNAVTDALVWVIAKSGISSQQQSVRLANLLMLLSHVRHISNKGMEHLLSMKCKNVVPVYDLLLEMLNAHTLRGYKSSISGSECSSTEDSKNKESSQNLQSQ
The assay can be described thus: ER-β transactivation in HEK-293 cells. In kind it is cell-based. On the procedure:
as §1

A further assay concerns the target T3, GR (Rattus norvegicus, UniProt P06536).
T3 construct: expressed in transfected cells
Put plainly: GR transactivation in HEK-293 cells. It counts as cell-based. As for the experimental part: as §1

The mark [2] stands for this setting: highest tested concentration 1 μM.

The structures appear in SMILES notation.

T1 sequence (P06211 whole entry): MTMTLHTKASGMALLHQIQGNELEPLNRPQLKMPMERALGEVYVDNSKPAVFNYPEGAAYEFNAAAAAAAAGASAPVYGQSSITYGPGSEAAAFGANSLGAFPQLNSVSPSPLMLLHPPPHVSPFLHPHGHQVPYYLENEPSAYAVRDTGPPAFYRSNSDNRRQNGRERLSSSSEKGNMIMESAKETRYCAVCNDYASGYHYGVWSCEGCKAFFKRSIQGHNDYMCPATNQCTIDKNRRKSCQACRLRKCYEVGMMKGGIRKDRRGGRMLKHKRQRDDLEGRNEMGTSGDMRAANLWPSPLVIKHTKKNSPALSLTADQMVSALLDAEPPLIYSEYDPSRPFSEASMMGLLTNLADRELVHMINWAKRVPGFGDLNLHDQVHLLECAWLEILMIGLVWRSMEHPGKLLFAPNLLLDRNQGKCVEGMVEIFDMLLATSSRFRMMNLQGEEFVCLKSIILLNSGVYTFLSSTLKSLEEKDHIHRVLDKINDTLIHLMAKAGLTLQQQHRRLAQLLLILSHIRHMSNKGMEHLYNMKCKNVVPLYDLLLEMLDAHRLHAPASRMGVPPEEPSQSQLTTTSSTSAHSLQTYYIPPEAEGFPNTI
T3 sequence (P06536 whole entry): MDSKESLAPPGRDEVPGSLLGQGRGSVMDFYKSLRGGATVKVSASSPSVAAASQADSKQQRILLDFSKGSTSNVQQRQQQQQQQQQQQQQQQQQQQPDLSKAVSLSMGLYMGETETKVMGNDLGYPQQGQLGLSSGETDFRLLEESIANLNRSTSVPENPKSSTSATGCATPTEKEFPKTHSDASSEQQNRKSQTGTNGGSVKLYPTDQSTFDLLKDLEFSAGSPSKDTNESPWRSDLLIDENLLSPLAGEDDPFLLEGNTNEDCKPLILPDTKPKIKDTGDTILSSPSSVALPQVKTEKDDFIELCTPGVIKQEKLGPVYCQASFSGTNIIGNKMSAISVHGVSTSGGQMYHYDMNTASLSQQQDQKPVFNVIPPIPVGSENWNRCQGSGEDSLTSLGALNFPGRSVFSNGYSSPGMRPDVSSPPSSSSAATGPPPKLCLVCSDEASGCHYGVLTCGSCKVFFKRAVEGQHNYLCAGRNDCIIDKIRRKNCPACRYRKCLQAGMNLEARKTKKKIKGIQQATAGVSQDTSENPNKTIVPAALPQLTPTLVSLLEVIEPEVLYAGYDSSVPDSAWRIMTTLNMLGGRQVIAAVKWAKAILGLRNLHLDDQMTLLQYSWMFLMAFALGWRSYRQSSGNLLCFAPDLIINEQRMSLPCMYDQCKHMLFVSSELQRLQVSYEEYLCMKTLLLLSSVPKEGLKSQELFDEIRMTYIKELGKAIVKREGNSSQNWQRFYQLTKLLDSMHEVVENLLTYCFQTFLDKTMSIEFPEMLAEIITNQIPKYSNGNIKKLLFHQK

As for `C[C@](O)(COc1ccc(C#N)cc1)C(=O)Nc1ccc(C#N)c(C(F)(F)F)c1` [Formula IX, (S)—N-(4-Cyano-3-(trifluoromethyl)phenyl)-3-(4-cyanophenoxy)-2-hydroxy-2-methylpropanamide], the tumor growth entry in the assay with BR-0001 TNBC (10 mg/kg/day Formula IX or enzalutamide orally) is “some tumor growth inhibition”. Besides, in the assay with BR-0001 TNBC (experiment 2), the tumor weight reduction was about 40%. Moreover, in the assay with MCF7 palboR cells, the anti-proliferative activity entry is given as “modest activity”. Moreover, the “growth inhibitory effects in the presence of bicalutamide” value in assay [1] (AR-positive cells, 10 μM bicalutamide) was “weakened growth inhibitory effects”. The cell growth entry in assay [1] (cells with AR, 3 days, SRB) is “inhibited”.
On to `C[C@](O)(COc1ccc(C#N)cc1)C(=O)Nc1ccc(C#N)c(Cl)c1` [Formula VIII, (S)—N-(3-chloro-4-cyanophenyl)-3-(4-cyanophenoxy)-2-hydroxy-2-methylpropanamide], for which, in the assay on MCF-7-AR tumors, the AHR expression result is “Increased”, the CDT1 expression result is on record as “Decreased”, the Catalase expression result is “Increased” and the EHMT1 expression result is reported as “Increased”. Besides, in the assay on MCF-7-AR tumors, the ER-α expression entry is “Decreased”, the ERCC2 expression entry was “Decreased”, the FACGD2 expression entry is “Decreased” and the IRS1 expression result is on record as “Decreased”. For the same compound, in the assay on MCF-7-AR tumors, the KLK3 expression entry is given as “Increased”, the MTR expression entry is “Decreased”, the NPAS2 expression entry is on record as “Increased” and the PON2 expression result is “Increased”. In addition, in the assay with MCF-7-AR tumors, the PR expression entry was “Decreased”, the TIMP3 expression result is recorded as “Increased” and the XRCC1 expression result is listed as “Decreased”. Moreover, the “17β-estradiol-induced ER-α activity, antagonist mode” value on ER-α (co-incubation) was “failed to alter”. Besides, on ER-α (setting [2]), the “ERα-mediated transactivation, agonist mode” value was “failed to activate”. Further, at ER-β (co-incubation), the “17β-estradiol-induced ER-β activity, antagonist mode” value was “failed to alter”. For the same compound, the “ERβ-mediated transactivation, agonist mode” value at ER-β (setting [2]) is on record as “failed to activate”. The “GR-mediated transactivation, agonist mode” value at GR (all tested concentrations) is reported as “did not induce”. The “dexamethasone-induced GR-mediated transactivation, antagonist mode” value at GR (co-incubation) is recorded as “failed to alter”.
